Results from ChEMBL document CHEMBL4507288 (2021).
Activity calls are given as the source filed them. The calls are words filed in the database; no cut-off is given here.

Key:
[1] = target: 5-hydroxytryptamine receptor 1D (Homo sapiens, UniProt P28221); conditions: Compound concentration 10.0 uM
[2] = target: 5-hydroxytryptamine receptor 2B (Homo sapiens, UniProt P41595); conditions: Compound concentration 10.0 uM
[3] = target: Sodium-dependent dopamine transporter (Homo sapiens, UniProt Q01959); conditions: Compound concentration 10.0 uM
[4] = target: D(1B) dopamine receptor (Homo sapiens) (UniProt P21918); conditions: Compound concentration 10.0 uM
[5] = target: Beta-3 adrenergic receptor (Homo sapiens) (UniProt P13945); conditions: Compound concentration 10.0 uM
[6] = target: Alpha-2C adrenergic receptor (Homo sapiens) (UniProt P18825); conditions: Compound concentration 10.0 uM
Alpha-2C adrenergic receptor (Homo sapiens), sequence (P18825 whole entry): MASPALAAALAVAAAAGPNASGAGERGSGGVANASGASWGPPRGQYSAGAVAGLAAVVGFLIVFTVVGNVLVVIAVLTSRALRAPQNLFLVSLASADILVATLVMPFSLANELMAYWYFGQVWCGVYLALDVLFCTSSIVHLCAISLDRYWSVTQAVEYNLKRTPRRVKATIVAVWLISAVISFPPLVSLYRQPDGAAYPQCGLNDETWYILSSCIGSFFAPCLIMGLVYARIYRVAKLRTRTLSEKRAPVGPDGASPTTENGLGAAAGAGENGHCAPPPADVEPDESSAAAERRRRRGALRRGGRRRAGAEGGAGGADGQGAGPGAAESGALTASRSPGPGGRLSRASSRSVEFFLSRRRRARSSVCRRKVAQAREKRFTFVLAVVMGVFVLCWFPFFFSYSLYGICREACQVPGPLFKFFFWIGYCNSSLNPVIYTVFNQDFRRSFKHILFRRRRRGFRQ

[7] = target: 5-hydroxytryptamine receptor 5A (Homo sapiens) (UniProt P47898); conditions: Compound concentration 10.0 uM
[8] = target: 5-hydroxytryptamine receptor 6 (Homo sapiens) (UniProt P50406); conditions: Compound concentration 10.0 uM
[9] = target: GABA-A receptor; anion channel (Rattus norvegicus) (UniProt O09028+P15431+P18506+P18508+P19969+P20236+P23574+P23576+P28471+P28473+P30191+P62813+P63079+P63138+Q91ZM7+Q9ES14); conditions: Compound concentration 10.0 uM
D(3) dopamine receptor = D(3) dopamine receptor (Homo sapiens, UniProt P35462); conditions: Compound concentration 10.0 uM
[10] = target: Histamine H3 receptor (Homo sapiens) (UniProt Q9Y5N1); conditions: Compound concentration 10.0 uM
[11] = target: Amyloid-beta precursor protein (Homo sapiens, UniProt P05067); experiment: Aβ40 inhibition assay
[12] = target: 5-hydroxytryptamine receptor 2A (Homo sapiens, UniProt P28223); conditions: Compound concentration 10.0 uM
5-hydroxytryptamine receptor 2A, sequence (P28223 whole entry): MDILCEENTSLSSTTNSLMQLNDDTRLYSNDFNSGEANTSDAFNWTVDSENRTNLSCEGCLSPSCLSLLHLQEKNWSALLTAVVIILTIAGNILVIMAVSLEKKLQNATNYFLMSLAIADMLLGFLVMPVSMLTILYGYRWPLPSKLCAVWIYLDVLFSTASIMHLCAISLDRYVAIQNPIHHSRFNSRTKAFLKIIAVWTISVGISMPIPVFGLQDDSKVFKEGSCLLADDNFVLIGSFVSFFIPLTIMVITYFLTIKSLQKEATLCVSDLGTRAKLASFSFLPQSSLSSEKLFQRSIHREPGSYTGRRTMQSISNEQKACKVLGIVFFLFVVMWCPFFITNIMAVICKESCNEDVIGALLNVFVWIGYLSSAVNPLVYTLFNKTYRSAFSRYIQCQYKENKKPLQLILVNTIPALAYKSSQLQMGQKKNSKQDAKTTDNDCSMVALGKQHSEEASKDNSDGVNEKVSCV

[13] = target: Muscarinic acetylcholine receptor M2 (Homo sapiens) (UniProt P08172); conditions: Compound concentration 10.0 uM
[14] = target: 5-hydroxytryptamine receptor 1A (Homo sapiens) (UniProt P08908); conditions: Compound concentration 10.0 uM
5-hydroxytryptamine receptor 1A (Homo sapiens), sequence (P08908 whole entry): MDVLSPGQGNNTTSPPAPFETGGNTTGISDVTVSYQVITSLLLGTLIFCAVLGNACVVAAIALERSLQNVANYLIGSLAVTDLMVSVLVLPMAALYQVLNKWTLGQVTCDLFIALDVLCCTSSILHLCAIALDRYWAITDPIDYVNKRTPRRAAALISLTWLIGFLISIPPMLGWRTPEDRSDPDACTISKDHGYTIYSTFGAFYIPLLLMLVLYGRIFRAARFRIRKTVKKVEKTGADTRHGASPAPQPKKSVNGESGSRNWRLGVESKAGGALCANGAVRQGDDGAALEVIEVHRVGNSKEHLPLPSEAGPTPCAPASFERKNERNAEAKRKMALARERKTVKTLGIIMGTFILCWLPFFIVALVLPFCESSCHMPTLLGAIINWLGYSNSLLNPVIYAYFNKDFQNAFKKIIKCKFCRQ

[15] = target: Sigma non-opioid intracellular receptor 1 (Homo sapiens, UniProt Q99720); conditions: Compound concentration 10.0 uM
Sigma non-opioid intracellular receptor 1, sequence (Q99720 whole entry): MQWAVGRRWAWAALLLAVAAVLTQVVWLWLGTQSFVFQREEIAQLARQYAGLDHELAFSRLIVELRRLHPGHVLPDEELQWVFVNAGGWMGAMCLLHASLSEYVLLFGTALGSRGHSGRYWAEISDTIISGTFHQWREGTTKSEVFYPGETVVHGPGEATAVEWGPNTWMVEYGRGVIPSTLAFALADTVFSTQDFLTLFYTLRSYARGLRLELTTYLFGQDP

[16] = target: Kappa-type opioid receptor (Homo sapiens, UniProt P41145); conditions: Compound concentration 10.0 uM
Kappa-type opioid receptor, sequence (P41145 whole entry): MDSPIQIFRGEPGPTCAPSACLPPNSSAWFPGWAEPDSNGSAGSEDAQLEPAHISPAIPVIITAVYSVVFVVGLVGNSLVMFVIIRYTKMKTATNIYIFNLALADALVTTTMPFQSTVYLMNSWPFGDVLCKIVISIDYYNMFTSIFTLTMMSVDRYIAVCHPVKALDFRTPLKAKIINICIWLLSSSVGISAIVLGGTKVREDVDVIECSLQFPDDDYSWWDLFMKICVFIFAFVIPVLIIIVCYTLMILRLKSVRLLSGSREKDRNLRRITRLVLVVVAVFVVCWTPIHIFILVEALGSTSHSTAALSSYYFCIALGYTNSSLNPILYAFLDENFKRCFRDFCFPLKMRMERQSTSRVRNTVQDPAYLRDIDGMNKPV

[17] = target: Muscarinic acetylcholine receptor M1 (Homo sapiens) (UniProt P11229); conditions: Compound concentration 10.0 uM
[18] = target: D(1A) dopamine receptor (Homo sapiens) (UniProt P21728); conditions: Compound concentration 10.0 uM
[19] = target: Alpha-1B adrenergic receptor (Homo sapiens) (UniProt P35368); conditions: Compound concentration 10.0 uM
[20] = target: Sigma intracellular receptor 2 (Homo sapiens, UniProt Q5BJF2); conditions: Compound concentration 10.0 uM
[21] = target: 5-hydroxytryptamine receptor 1B (Homo sapiens, UniProt P28222); conditions: Compound concentration 10.0 uM
D(2) dopamine receptor = D(2) dopamine receptor (Homo sapiens, UniProt P14416); conditions: Compound concentration 10.0 uM
[22] = target: Alpha-2A adrenergic receptor (Homo sapiens) (UniProt P08913); conditions: Compound concentration 10.0 uM
Alpha-2A adrenergic receptor (Homo sapiens), sequence (P08913 whole entry): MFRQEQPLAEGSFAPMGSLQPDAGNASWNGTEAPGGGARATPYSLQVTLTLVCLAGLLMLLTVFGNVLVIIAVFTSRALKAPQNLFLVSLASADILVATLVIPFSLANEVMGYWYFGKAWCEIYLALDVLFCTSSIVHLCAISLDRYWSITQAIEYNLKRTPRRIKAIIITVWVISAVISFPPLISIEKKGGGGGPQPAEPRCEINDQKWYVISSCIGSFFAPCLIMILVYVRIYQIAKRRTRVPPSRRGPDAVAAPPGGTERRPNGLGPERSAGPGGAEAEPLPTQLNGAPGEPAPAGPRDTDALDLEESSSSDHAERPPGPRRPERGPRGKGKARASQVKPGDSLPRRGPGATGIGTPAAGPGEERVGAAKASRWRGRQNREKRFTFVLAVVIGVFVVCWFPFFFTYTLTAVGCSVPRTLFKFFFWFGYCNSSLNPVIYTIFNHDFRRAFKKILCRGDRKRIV

[23] = target: Sodium-dependent noradrenaline transporter (Homo sapiens, UniProt P23975); conditions: Compound concentration 10.0 uM
Sodium-dependent noradrenaline transporter, sequence (P23975 whole entry): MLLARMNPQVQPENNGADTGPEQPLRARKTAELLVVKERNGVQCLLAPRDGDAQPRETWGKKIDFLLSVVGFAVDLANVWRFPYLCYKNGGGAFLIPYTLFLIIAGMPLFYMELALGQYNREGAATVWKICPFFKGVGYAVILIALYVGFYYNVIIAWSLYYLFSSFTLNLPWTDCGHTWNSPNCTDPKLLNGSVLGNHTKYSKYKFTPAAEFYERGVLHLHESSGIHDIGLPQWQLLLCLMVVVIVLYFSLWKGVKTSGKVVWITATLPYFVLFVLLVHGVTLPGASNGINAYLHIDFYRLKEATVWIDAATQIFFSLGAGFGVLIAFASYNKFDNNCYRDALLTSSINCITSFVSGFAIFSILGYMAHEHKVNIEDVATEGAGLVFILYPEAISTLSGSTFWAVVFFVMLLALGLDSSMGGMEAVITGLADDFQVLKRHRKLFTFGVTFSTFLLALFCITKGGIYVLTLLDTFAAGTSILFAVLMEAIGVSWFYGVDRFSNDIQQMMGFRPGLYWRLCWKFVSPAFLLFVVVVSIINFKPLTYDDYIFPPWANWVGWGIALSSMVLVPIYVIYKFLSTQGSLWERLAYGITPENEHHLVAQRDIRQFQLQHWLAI

[24] = target: 5-hydroxytryptamine receptor 7 (Homo sapiens, UniProt P34969); conditions: Compound concentration 10.0 uM
[25] = target: Mu-type opioid receptor (Homo sapiens) (UniProt P35372); conditions: Compound concentration 10.0 uM
[26] = target: D(4) dopamine receptor (Homo sapiens) (UniProt P21917); conditions: Compound concentration 10.0 uM
[27] = target: 5-hydroxytryptamine receptor 3A (Homo sapiens) (UniProt P46098); conditions: Compound concentration 10.0 uM
[28] = target: Alpha-1A adrenergic receptor (Homo sapiens) (UniProt P35348); conditions: Compound concentration 10.0 uM
Alpha-1A adrenergic receptor (Homo sapiens), sequence (P35348 whole entry): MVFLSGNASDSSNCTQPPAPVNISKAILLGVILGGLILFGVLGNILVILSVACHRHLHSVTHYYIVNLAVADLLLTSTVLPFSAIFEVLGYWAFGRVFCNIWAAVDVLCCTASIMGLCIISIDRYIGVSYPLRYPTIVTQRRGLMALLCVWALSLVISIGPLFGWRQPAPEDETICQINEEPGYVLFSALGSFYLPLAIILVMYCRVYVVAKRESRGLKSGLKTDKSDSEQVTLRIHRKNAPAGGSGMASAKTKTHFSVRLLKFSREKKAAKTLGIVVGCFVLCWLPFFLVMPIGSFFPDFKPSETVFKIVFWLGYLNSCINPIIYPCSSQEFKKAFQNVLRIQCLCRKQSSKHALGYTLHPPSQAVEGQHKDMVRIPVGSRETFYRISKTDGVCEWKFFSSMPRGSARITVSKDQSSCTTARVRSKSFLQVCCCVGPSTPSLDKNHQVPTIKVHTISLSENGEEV

[29] = target: Alpha-2B adrenergic receptor (Homo sapiens) (UniProt P18089); conditions: Compound concentration 10.0 uM
Alpha-2B adrenergic receptor (Homo sapiens), sequence (P18089 whole entry): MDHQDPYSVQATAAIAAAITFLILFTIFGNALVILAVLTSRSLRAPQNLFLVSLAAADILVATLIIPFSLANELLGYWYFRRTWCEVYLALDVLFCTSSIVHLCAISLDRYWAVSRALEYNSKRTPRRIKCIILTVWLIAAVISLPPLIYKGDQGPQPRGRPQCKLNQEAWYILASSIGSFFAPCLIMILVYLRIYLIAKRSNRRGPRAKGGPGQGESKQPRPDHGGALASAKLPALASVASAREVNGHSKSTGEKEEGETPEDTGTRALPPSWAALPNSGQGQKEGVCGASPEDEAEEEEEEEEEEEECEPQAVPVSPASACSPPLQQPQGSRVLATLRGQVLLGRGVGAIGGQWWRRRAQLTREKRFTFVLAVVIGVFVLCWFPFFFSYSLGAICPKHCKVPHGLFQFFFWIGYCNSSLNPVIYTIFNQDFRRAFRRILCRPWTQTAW

[30] = target: Sodium-dependent serotonin transporter (Homo sapiens) (UniProt P31645); conditions: Compound concentration 10.0 uM
[31] = target: Delta-type opioid receptor (Homo sapiens) (UniProt P41143); conditions: Compound concentration 10.0 uM
Delta-type opioid receptor (Homo sapiens), sequence (P41143 whole entry): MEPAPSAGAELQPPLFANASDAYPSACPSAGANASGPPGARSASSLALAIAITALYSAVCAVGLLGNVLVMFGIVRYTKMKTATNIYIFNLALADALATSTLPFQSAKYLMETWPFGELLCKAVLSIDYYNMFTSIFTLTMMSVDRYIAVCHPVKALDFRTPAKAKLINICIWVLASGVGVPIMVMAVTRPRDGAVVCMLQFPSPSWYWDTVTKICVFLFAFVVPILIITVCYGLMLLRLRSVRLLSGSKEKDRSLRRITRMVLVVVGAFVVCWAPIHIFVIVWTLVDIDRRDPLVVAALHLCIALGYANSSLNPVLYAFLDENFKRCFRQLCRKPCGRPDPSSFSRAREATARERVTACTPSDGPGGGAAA

[32] = target: Muscarinic acetylcholine receptor M4 (Homo sapiens) (UniProt P08173); conditions: Compound concentration 10.0 uM
[33] = target: 5-hydroxytryptamine receptor 2C (Homo sapiens) (UniProt P28335); conditions: Compound concentration 10.0 uM
[34] = target: Muscarinic acetylcholine receptor M5 (Homo sapiens) (UniProt P08912); conditions: Compound concentration 10.0 uM
[35] = target: Histamine H1 receptor (Homo sapiens) (UniProt P35367); conditions: Compound concentration 10.0 uM
[36] = target: Alpha-1D adrenergic receptor (Homo sapiens) (UniProt P25100); conditions: Compound concentration 10.0 uM
Alpha-1D adrenergic receptor (Homo sapiens), sequence (P25100 whole entry): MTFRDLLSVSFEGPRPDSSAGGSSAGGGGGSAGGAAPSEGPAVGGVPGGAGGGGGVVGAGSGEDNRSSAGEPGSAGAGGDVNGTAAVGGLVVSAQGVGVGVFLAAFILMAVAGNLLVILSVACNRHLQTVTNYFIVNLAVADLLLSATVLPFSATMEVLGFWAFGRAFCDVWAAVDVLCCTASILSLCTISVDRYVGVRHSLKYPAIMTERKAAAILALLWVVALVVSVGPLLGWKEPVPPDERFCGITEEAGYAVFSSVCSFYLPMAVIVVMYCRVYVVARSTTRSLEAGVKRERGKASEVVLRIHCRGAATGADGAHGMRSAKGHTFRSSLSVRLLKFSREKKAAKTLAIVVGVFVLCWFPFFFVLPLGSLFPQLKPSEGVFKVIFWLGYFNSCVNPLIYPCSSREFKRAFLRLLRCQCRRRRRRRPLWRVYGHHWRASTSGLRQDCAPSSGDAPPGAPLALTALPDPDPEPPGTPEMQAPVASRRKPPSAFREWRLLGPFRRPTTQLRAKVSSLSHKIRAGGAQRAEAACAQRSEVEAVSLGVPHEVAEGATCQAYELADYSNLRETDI

[37] = target: Cyclin-dependent kinase 11A (Homo sapiens) (UniProt Q9UQ88); conditions: Compound concentration 1000.0 nM
[38] = target: cAMP-dependent protein kinase catalytic subunit beta (Homo sapiens) (UniProt P22694); conditions: Compound concentration 1000.0 nM
[39] = target: TGF-beta receptor type-2 (Homo sapiens) (UniProt P37173); conditions: Compound concentration 1000.0 nM
[40] = system: Tyrosine-protein kinase ABL1 (Homo sapiens), P00519 [F317L]; conditions: Compound concentration 1000.0 nM
[41] = target: Wee1-like protein kinase 2 (Homo sapiens) (UniProt P0C1S8); conditions: Compound concentration 1000.0 nM
[42] = target: Serine/threonine-protein kinase TAO2 (Homo sapiens) (UniProt Q9UL54); conditions: Compound concentration 1000.0 nM
[43] = target: Protein kinase C delta type (Homo sapiens) (UniProt Q05655); conditions: Compound concentration 1000.0 nM
[44] = target: Serine/threonine-protein kinase Nek11 (Homo sapiens) (UniProt Q8NG66); conditions: Compound concentration 1000.0 nM

SMILES: CC(C)(C)OC(=O)N1CCCC1CNC1CCC(c2cc(F)ccc2F)(S(=O)(=O)c2ccc(Cl)cc2)CC1 (centres undefined) [GSI-NC]
- inhibition [1]: 61.4%
- inhibition [2]: 97.2%
- inhibition [3]: 95.9%
- inhibition [4]: 13.1%
- inhibition [5]: 25.6%
- inhibition [6]: 81.4%
- inhibition [7]: 35%
- inhibition [8]: 37.1%
- inhibition [9]: 14.6%
- inhibition (D(3) dopamine receptor): 86.1%
- inhibition [10]: 26.9%
- IC50 [11]: 1600 nM (not active)
- inhibition [12]: 92.2%
- inhibition [13]: 9.4%
- inhibition [14]: 66.3%
- inhibition [15]: 91.6%
- inhibition [16]: 69.8%
- inhibition [17]: 8.44%
- inhibition [18]: 13.8%
- inhibition [19]: 41%
- inhibition [20]: 83.4%
- inhibition [21]: 70.4%
- inhibition (D(2) dopamine receptor): 83%
- inhibition [22]: 82.3%
- inhibition [23]: 50.7%
- inhibition [24]: 70.7%
- inhibition [25]: 49.1%
- inhibition [26]: 20.4%
- inhibition [27]: -5.6%
- inhibition [28]: 12.4%
- inhibition [29]: 77.4%
- inhibition [30]: 6.71%
- inhibition [31]: 21.4%
- inhibition [32]: 25.6%
- inhibition [33]: 80.9%
- inhibition [34]: 26.5%
- inhibition [35]: 25.6%
- inhibition [36]: 22.5%

SMILES: O=S(=O)(NC1CCC(c2cc(F)ccc2F)(S(=O)(=O)c2ccc(Cl)cc2)CC1)C(F)(F)F (centres undefined) [MRK-560]
- inhibition [1]: 13.9%
- inhibition [2]: 4.74%
- inhibition [3]: 75.1%
- residual activity [37]: 96%
- inhibition [4]: 11.3%
- inhibition [5]: 13.5%
- inhibition [6]: 18.2%
- residual activity [38]: 98%
- inhibition [7]: -5.05%
- inhibition [8]: 12.3%
- inhibition [9]: 28.6%
- residual activity [39]: 100%
- inhibition (D(3) dopamine receptor): 21.7%
- inhibition [10]: 14.2%
- IC50 [11]: < 0.5 nM (active)
- inhibition [12]: 31.2%
- inhibition [13]: -0.654%
- residual activity [40]: 100%
- inhibition [14]: 18.3%
- inhibition [15]: 36.8%
- inhibition [16]: 24.6%
- residual activity [41]: 100%
- inhibition [17]: -5.38%
- inhibition [18]: 17.4%
- residual activity [42]: 100%
- inhibition [19]: -5.22%
- inhibition [20]: 25.2%
- inhibition [21]: 15.4%
- inhibition (D(2) dopamine receptor): 11.4%
- inhibition [22]: 8.45%
- inhibition [23]: 7.49%
- inhibition [24]: -5.02%
- inhibition [25]: 20%
- inhibition [26]: 20.1%
- inhibition [27]: -8.12%
- inhibition [28]: 9.88%
- residual activity [43]: 100%
- inhibition [29]: -2.13%
- inhibition [30]: -3.67%
- inhibition [31]: 20%
- inhibition [32]: 18.9%
- residual activity [44]: 100%
- inhibition [33]: 12.3%
- inhibition [34]: 1.96%
- inhibition [35]: 20.3%
- inhibition [36]: 0.882%
